Experimental findings from patent US11357752B2, “Carolacton and derivatives thereof for use in the treatment of cell proliferation disorders” (Helmholtz-Zentrum für Infektionsforschung GmbH, priority 2017, dated 2022) are described below.

Converted amounts (≈) assume the structure as drawn.

One experiment deals with L-929 mouse fibroblasts. Kind of experiment: Cell proliferation assay with mouse fibroblasts (MTT). It counts as cell-based. How it is done: L-929 mouse fibroblasts from DSMZ cultivated at 37° C. and 10% CO2 in DME medium (high glucose) supplemented with 10% fetal calf serum. Cell culture reagents came from Life Technologies Inc. (GIBCO BRL). […] of serial dilutions of the test compound were given to […] of suspended cells (50,000/mL) in wells of 96-well plates. After 5 days of incubation growth inhibition (IC50) was determined using an MTT assay (Mosman et al., 1983).

Another experiment addresses T1, hsMTHFD2 (Homo sapiens, UniProt P13995).
T1 construct: His-tag (vector pHis-TEV); made in house; host or cells: E. coli BL21 (DE3)
T1 sequence (P13995 36-350): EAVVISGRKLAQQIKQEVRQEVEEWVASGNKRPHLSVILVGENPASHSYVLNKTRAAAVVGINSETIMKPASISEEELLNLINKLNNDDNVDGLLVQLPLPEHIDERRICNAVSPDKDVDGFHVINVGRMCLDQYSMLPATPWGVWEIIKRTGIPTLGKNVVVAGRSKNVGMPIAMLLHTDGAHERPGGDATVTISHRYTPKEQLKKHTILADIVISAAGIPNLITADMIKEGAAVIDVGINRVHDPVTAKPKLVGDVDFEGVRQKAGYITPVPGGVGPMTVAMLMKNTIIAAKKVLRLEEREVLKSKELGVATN
As to the kind of experiment: FoID cyclohydrolase (CYH) enzyme assay. Type of experiment: biochemical. How it is done:
(§1) (6R,S)-5,10-Methylene-5,6,7,8-tetrahydrofolic acid ((6R,S)-5,10-CH2-THF), calcium salt and (6R,S)-5,10-Methenyl-5,6,7,8-tetrahydrofolic acid ((6R,S)-5,10-CH=THF) chloride were purchased from Schircks Laboratories (Bauma, Switzerland) and were used as substrates for FoID dehydrogenase and cyclohydrolase enzyme assays, respectively. Only the R-isomer, which accounts for 50% of (6R,S)-5,10-CH2-THF and (6R,S)-5,10-CH=THF, respectively, is used by the enzyme. (6R,S)-5,10-CH2-THF was dissolved in N2-spargeled basic buffer (50 mM Tris-HCl (pH 8.0), 100 mM β-mercaptoethanol) as described by Sah and Varshney, 2015a (6R,S)-5,10-CH=THF was first dissolved in DMSO as a 100 mM stock solution.
(§2) Because FoID is a bifunctional enzyme, dehydrogenase and cyclohydrolase activities were determined for FoID enzyme kinetics, respectively. The dehydrogenase activity of FoID was assayed for its substrate 5,10-CH2-THF and cofactor NADP+ (in the case of MTHFD2, NAD+ was used as cofactor) based on monitoring the formation of 5,10-CH=THF while the cyclohydrolase activity of FoID was determined for its substrate 5,10-CH=THF by monitoring the hydrolysis of 5,10-CH2-THF. The enzyme kinetics for the dehydrogenase activity of all FoIDs except hsMTHFD1_DC were determined at 30° C. in 50 mM Tris-HCl (pH 7.5), 30 mM β-mercaptoethanol. The hsMTHFD1_DC dehydrogenase activity was measured in 25 mM MOPS (pH 7.3), 30 mM β-mercaptoethanol at 30° C. To measure the enzyme kinetics constants for 5,10-CH2-THF, for example in the case of ecFoID, the NADP concentration was fixed at 1 mM and the concentration of 5,10-CH2-THF varied from 5 μM to 1,500 μM (R-isomer). Similarly, to measure the kinetic constants of ecFoID for NADP+, the concentration of 5,10-CH2-THF (R-isomer) was fixed at 1 mM and the concentration of NADP+ varied from 10 μM to 1,500 μM. For different FoIDs, the varied concentration range of substrates could be different. […] To monitor the formation of 5,10-CH=THF, the absorbance of the reaction mixture was monitored at 350 nm in micro UV cuvettes (BRAND, Essex, Connecticut, USA). The concentration of 5,10-CH=THF produced in the reaction was determined using an extinction co-efficient of 0.0249 μM-1 cm-1. […] The consumption of 5,10-CH=THF was measured by recording the absorbance of the reactions at 355 nm using the TECAN Infinite 200 PRO equipped with a monochromator. […] The inhibition constants (Ki) of carolacton on FoID were determined by measuring the apparent Km values when adding certain amounts of carolacton to the enzyme reactions. […] To compare the inhibition effects of carolacton between the different FoIDs, the half maximal inhibitory concentration (IC50) of carolacton on the same amount of enzyme was determined for FoIDs involved in this study. […]

Another experiment has as its target T2, hsMTHFD1 DC301 (Homo sapiens, UniProt P11586).
T2 construct: We therefore expressed and purified hsMTHFD2 and hsMTHFD1_DC to test them biochemically; His-tag (vector pHis-TEV); made in house; host or cells: E. coli BL21 (DE3)
T2 sequence (P11586 2-291 limits assumed): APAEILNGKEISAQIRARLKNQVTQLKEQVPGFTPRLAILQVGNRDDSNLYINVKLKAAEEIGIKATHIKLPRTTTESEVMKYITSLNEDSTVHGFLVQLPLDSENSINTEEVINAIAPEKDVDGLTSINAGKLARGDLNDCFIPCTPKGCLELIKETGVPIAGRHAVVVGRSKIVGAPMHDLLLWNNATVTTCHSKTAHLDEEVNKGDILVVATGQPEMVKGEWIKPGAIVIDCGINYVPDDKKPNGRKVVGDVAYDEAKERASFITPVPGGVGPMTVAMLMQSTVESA
As to the kind of experiment: FoID cyclohydrolase (CYH) enzyme assay. It counts as biochemical. How it is done:
as §1, §2

The mark [1] stands for this setting: 5 nM enzyme, read-out: IC50, carolacton inhibition on CYH activity.
Where [2] appears, read: vs 5,10-CH=THF, read-out: Ki (5,10-CH═THF), carolacton inhibition on CYH activity.

Usually Ki stands for the equilibrium dissociation constant of an inhibitor or competing ligand from its target. For `CO[C@H](CC(=O)O)[C@@H](C)C(=O)[C@H](C)/C=C(\C)[C@H]1OC(=O)[C@H](O)[C@H](O)/C=C/[C@H](C)CCC[C@@H]1C` [Carolacton, carolacton], the “inhibition of growth of L929 cells reached” value in the experiment on L-929 mouse fibroblasts (L929 cells cultivated for 5 days) was ≤ 50%. The IC50 in the experiment with L-929 mouse fibroblasts (Mus musculus, L929, 120 h, read-out: adapted IC50, inhibition of mouse fibroblast proliferation) is 3.5 µg/mL (≈ 7.47 µM); at hsMTHFD2 (setting [1]), 85.7 nM; at hsMTHFD1 DC301 (setting [1]), 19.4 nM. Further, the inhibitory constant (Ki) at hsMTHFD2 (setting [2]) stood at 12.7 nM; on hsMTHFD1 DC301 (setting [2]), 20.6 nM.
